Results on 2 compounds are retold here after patent US8592485B2, “Methods and pharmaceutical compositions for treating the animal central nervous system for psychiatric disorders” (HealthPartners Research Foundation, priority 2010, dated 2013).

One data set concerns GSK3b. Description: Hippocampal pGSK3b/GSK3b ratio in C57 mice after DFO (western blot, ELISA). The following applies: hippocampus (FIG. 1A); for higher ratio of pGSK3b/GSK3b than PBS mice: upper third of nasal cavity, five days/week for four weeks. It counts as in vivo. The procedure:
The study method providing results in FIGS. 1A and 1B comprised normal C57 mice which were treated with DFO by administration to the upper third of the nasal cavity, thereby delivering the DFO directly to the CNS by bypassing the blood-brain barrier. Treatment groups consisted of 1% DFO, 10% DFO and saline. Mice were treated five days/week for four weeks. Mice were then dosed a final time, euthanized after 30 minutes, brain tissues collected an analyzed for biochemical changes. Protein extraction was achieved by homogenization of frozen brain tissues in 5 volumes of ice-cold RIPA buffer supplemented with protease inhibitor cocktail and phosphatase inhibitor cocktail. Homogenates were centrifuged at 20,000×g for 20 minutes at 4C. Supernatant was collected from the cortex, diencephalon and hippocampus and stored at −70C until analysis by western blot and ELISA.

For data set [1] the following is noted: cited from earlier work.
For data set [2] the following is noted: cited from earlier work. This is another data set of the same source.
The nature of data set [3]: Intranasal delivery of DFO (bound to 59Fe) to rats, tissue concentrations by scintillation counting.
Method: Delivery of intranasal DFO to the upper one-third of the nasal cavity has been assessed by administering 6 mg DFO bound to 6 μCi of ^59Fe (as ^59FeCl3) to rats under anesthesia. The IN dose in 60 μL was administered as 6 μL drops over twenty minutes. Following delivery, tissues were removed for analysis.

SMILES strings stand for the structures.

Take `CC(=O)N(O)CCCCCNC(=O)CCC(=O)N(O)CCCCCNC(=O)CCC(=O)N(O)CCCCCN` [DFO, deferoxamine]: the “higher ratio of pGSK3b/GSK3b than PBS mice” value is 99.8% in the data set on GSK3b (1% DFO) and 214% with GSK3b (10% DFO). Further, the “higher ratio of pGSK3b/GSK3b of 10% DFO mice than 1% DFO mice” value with GSK3b (10% DFO versus 1% DFO, intranasal) is given as 57.4%. Also, in data set [1] (humans, intravenous), the typical plasma half-life entry is listed as “less than 10 minutes”. Besides, the “crossing of the blood-brain barrier” value in data set [1] (intravenously or systemically administered) is reported as “does not efficiently or effectively cross the blood-brain barrier”. For the same compound, in data set [2], the “effect of injection of an intravenous bolus” value is recorded as “acute hypotension”.
On to `CC(=O)N([O-])CCCCCNC(=O)CCC(=O)N([O-])CCCCCNC(=O)CCC(=O)N([O-])CCCCCN.[Fe+3]` [ferrioxamine], for which the “blood concentrations of ferrioxamine” value in data set [3] (5 minute intervals from dosing up to 25 minutes post-dose) is listed as “quite low”. The “labeled ferrioxamine in brain by scintillation counting” value in data set [3] (intranasal 6 mg DFO bound to 6 uCi 59Fe) is given as “detected throughout the brain”.
